Data published in patent US11911445B2, “Peptide YY pharmaceutical formulations, compositions, and methods” (Gila Therapeutics, Inc., priority 2018, dated 2024).
Where two headings read alike, the source gives them in different places. No end group written: not given here.

Columns and labels:
mice = details: cited from earlier work; for effect on 1-hour food intake: augmentation of salivary peptide; for reduction of caloric intake as compared to controls / caloric intake: mice; for reduction of caloric intake as compared to controls: salivary augmentation; for caloric intake: vehicle 4.10±0.04 kcal
rodents = details: augmentation of salivary PYY(3-36); cited from earlier work
[1] = tested on: subjects with BMIs of 30 to 40 kg/m^2; assay: Dose-escalation clinical trial, feeling of fullness assessed by VAS after lunch; format: in vivo, human
Description: An exemplary clinical trial was performed as a dose-escalation design trial. Approximately twelve evaluable subjects (n˜12) with BMIs of 30 to 40 kg/m^2 received a single dose of placebo followed by study drug (PYY(3-36) also known as GT-001) applied directly to the surface of the lingual mucosa with a disposable pipette followed by a one-day washout. A total of seven (7) doses was escalated to a dose of 2.5 mg/ml.
The dose can be prepared, for example, from a stock solution of 2.5 mg/ml PYY(3-36).
Subjects who complete all screening procedures and meet all inclusion and exclusion criteria described within the protocol and found to be eligible for study enrollment checked into the Study Unit (i.e., the study facility). The morning of the study, participants fasted prior to arriving at the SU. Participants fasted for at least 12 hours prior to Day 1 of the study. Participants were permitted to only drink water prior to arrival to SU and were able to brush their teeth. The following assessments and measurements were taken: • (1) Inspection of the lingual mucosa. • (2) Updating medical and medication history prior to placebo application. • (3) Assessing health status. If participant has either rhinitis or gastrointestinal distress, the participant will be discontinued for that day. • (4) Measuring body weight and BMI. • (5) Measuring vital signs (BP, HR, and body temperature). BP and HR were measured twice in the sitting position and twice in the standing position. If BP was high at baseline sitting (>160 systolic), BP was re-checked after participant was sitting for 5-10 min. Body temperature was measured once. • (6) Performing urine drug screen, urine cotinine test, alcohol breath test, and urine pregnancy test. • (7) Subjects provided a 325-400 calorie breakfast and calorie intake was recorded. • (8) Water was provided “ad-libitum” and volume recorded. • (9) Four (4) hours post breakfast, the VAS for Appetite and Satiety was performed. • (10) Inserting a cannula to obtain blood samples, obtaining a 5 ml blood sample, and screening for anti-GT-001 antibodies. • (11) Obtaining a fasting PK blood sample #1 (5 ml) 15 minutes prior to placebo. • (12) Performing a water mouthwash prior to dosing with GT-001. The mouthwash can be a rinse with 20 ml of water. • (13) Giving one milliliter (1 ml) of placebo (formulation without GT-001) to the participant to the tongue via pipette 5 minutes before lunch. • (14) The solution remained on the tongue for 1 minute followed by asking participants to swish and then swallow. • (15) Completing a VAS for like-lines (VAS completed by subjects). • (16) Collecting PK blood samples after each of seven doses at ±1 minute at 5, 10, 15, 30, and ±5 minutes at 60, 120, and 240 minutes post dose. • (17) Isolating subjects from other subjects during lunch. • (18) Provided a “ad-libitum” lunch (composed of a casserole, nutrient drink and two (2) cookies) and recording calorie intake. • (19) Having subjects complete VAS questionnaire for sweetness, sourness, bitterness, saltiness, umami, and fat taste 20 minutes after completing the meals. • (20) Recording VAS for appetite and satiety every 30 minutes for 2 hours after completing the meal. • (21) Discharging subjects. Subjects ate “at-libitum” until the 12-hour fasting period preceding the next study visit. • (22) During the SU visit, subjects were restricted from ingesting gum, candy, tobacco, carbonated drinks, and from performing exercise. During the meal, subjects were not exposed to food cues (visual, odor, or hearing) and they should eat in isolation.
Days 2, 4, 6, 8, 10, 12 and 14 treatment days are the same as day 1.
The following exemplary VAS Assessment was given to subjects to assess their feeling of fullness before and after receiving PYY(3-36) or placebo and before or after eating at various doses described herein. […]

[2] = PYY concentration in plasma after lingual administration followed by lunch; format: in vivo, human; details: 0.25 mg/ml and 2.5 mg/ml, each followed by lunch; up to 4 hours after administration
Description: As shown, administering the placebo followed by food consumption induces the known and expected endogenous production of PYY resulting from food consumption peaking at approximately 20 pg/ml above pre-dose levels at 1-2 hours post-administration.
Subjects who complete all screening procedures and meet all inclusion and exclusion criteria described within the protocol and found to be eligible for study enrollment checked into the Study Unit (i.e., the study facility). The morning of the study, participants fasted prior to arriving at the SU. Participants fasted for at least 12 hours prior to Day 1 of the study. […] BP and HR were measured twice in the sitting position and twice in the standing position. […] Body temperature was measured once. • (6) Performing urine drug screen, urine cotinine test, alcohol breath test, and urine pregnancy test. • (7) Subjects provided a 325-400 calorie breakfast and calorie intake was recorded. • (8) Water was provided “ad-libitum” and volume recorded. • (9) Four (4) hours post breakfast, the VAS for Appetite and Satiety was performed. • (10) Inserting a cannula to obtain blood samples, obtaining a 5 ml blood sample, and screening for anti-GT-001 antibodies. • (11) Obtaining a fasting PK blood sample #1 (5 ml) 15 minutes prior to placebo. • (12) Performing a water mouthwash prior to dosing with GT-001. […]

Substance | effect on 1-hour food intake (mice) | taste aversion (rodents) | feeling of fullness, VAS score (FIG. 1) ([1]; dose 25 ng applied to the tongue, 120 minutes post-lunch, 12 subjects, significantly above placebo level) | feeling of fullness, VAS score (FIG. 2) ([1]; dose 25 ng, up to 60 minutes post-lunch) | feeling of fullness, VAS score (FIG. 1) ([1]; dose 2.5 μg applied to the tongue, post-lunch, 12 subjects) | feeling of fullness, VAS score (FIG. 2) ([1]; dose 25 μg, maintained out to 120 minutes post-lunch) | feeling of fullness, VAS scale (FIG. 1) ([1]; dose 250 μg applied to the tongue, post-lunch, 12 subjects) | feeling of fullness, VAS score (FIG. 2) ([1]; dose 250 μg, maintained out to 120 minutes post-lunch) | reduction of caloric intake as compared to controls (mice; 0.3 μg/100 g) [%] | caloric intake (mice; 0.3 μg/100 g, p=0.01) [kcal] | reduction of caloric intake as compared to controls (mice; 3 μg/100 g) [%] | caloric intake (mice; 3 μg/100 g, p=0.008) [kcal] | reduction of caloric intake as compared to controls (mice; 10 μg/100 g) [%] | caloric intake (mice; 10 μg/100 g, p=1.81E-06) [kcal] | level of PYY in plasma versus placebo/meal combination (FIG. 3) [2]
amylin (KCNTATCATQRLANFLVHSSNNFGAILSSTNVGSNTY; not fully specified (C-terminus, bridges); cysteine pairing not given here; UniProt P10997 34-70, looked up) [peptide tested by salivary augmentation for comparison, reference compound] | no effect |  |  |  |  |  |  |  |  |  |  |  |  |  | 
PYY(3-36) | decrease | does not cause taste aversion | 7 | about 8 | increases | 8 | about 8 | 8 | 16 | 3.44 ± 0.06 | 26 | 3.01 ± 0.06 | 42 | 2.36 ± 0.05 | does not raise the level of PYY in plasma above levels induced by the placebo/meal combination
neuropeptide Y [reference compound] | no effect |  |  |  |  |  |  |  |  |  |  |  |  |  | 
